Data taken from US8759520B2, “Compounds for treating cancer” (Boehringer Ingelheim International GmbH, priority 2008, dated 2014).
pIC50: −log10 of the molar value. Like-named read-outs stand apart in the source and are kept apart here.

Biological target: Bcl-2 (Homo sapiens, UniProt P10415)
Test: Homogeneous HTS assay for inhibitors of the Bcl-2 : Bak (72-87) BH3 domain interaction, fluorescence polarisation (2D-FIDA)
Type: binding
Conditions: for IC50: fluorescence polarisation, fluorescent labelled Bak BH3 domain derived peptide, read-out: IC50 [μM] Bcl-2
Source text: FIG. 1 is a schematic drawing of the Bcl-2: Bak (72-87) interaction assay based on fluorescence polarisation.
The homogeneous HTS assay for inhibitors of the Bcl-2 is shown schematically in FIG. 1. BH3 domain interaction is based on fluorescence polarisation. The inherent rotational diffusion of the Bak BH3 domain derived fluorescent labelled peptide decreases upon binding to Bc1-2. This shift in rotational diffusion is quantitated using the two-dimensional fluorescence intensity distribution analysis (2D-FIDA; Kask et al. 2000, Biophys. J. 78: 1703-1713).
Two different BH3 domain derived peptide ligands were synthesised and subsequently fluorescently labelled: • a 16mer peptide covering amino acids 72-87 of the Bak protein; this peptide had been used by Wang and co-workers and Holinger and coworkers in their Bcl-2 protein binding studies; Wang and co-workers reported an equilibrium binding constant KD of ˜0.2 μM to Bcl-2 protein; • peptide sequence: GQVGRQLAIIGDDINR—N (Wang et al. 2002, Proc. Natl. Acad. Sci. U.S.A. 97: 7124-7129; Holinger et al. 1999, J. Biol. Chem. 274: 13298-13304).

Bcl-2, sequence (P10415 whole entry, species assumed, the tested form may be a part): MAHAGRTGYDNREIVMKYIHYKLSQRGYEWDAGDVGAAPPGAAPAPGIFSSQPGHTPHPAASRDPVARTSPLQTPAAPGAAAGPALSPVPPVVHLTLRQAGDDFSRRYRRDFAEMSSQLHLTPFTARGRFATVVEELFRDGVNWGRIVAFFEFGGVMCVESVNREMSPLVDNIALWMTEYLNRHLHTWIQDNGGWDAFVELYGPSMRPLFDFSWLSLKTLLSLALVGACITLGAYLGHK

IC50 | Compound | pIC50
< 10 µM | N=c1n(CCCOc2ccc(F)cc2)c2ccccc2n1Cc1cccc(N2CCN(Cc3ccccc3-c3ccc(Cl)cc3)CC2)c1 [Compound 27, 1-{3-[4-(4′-Chloro-biphenyl-2-ylmethyl)-piperazin-1-yl]-benzyl}-3-[3-(4-fluoro-phenoxy)-propyl]-1,3-dihydro-benzoimidazol-2-ylideneamine] | 
11 to 100 µM | COc1ccc(OCC(O)Cn2c(=N)n(Cc3ccccc3)c3ccccc32)cc1 (stereo not shown) [Compound 88, 1-(3-Benzyl-2-imino-2,3-dihydro-benzoimidazol-1-yl)-3-(4-methoxy-phenoxy)-propan-2-ol] | 
11 to 100 µM | N=c1n(Cc2ccc(Br)cc2)c2ccccc2n1CC1COc2ccccc2O1 (stereo not shown) [Compound 13, 1-(4-Bromo-benzyl)-3-(2,3-dihydro-benzo[1,4]dioxin-2-ylmethyl)-1,3-dihydro-benzoimidazol-2-ylideneamine] | 
11 to 100 µM | N=c1n(CCCOc2ccccc2)c2ccccc2n1Cc1ccccc1F [Compound 96, 1-(2-Fluoro-benzyl)-3-(3-phenoxy-propyl)-1,3-dihydro-benzoimidazol-2-ylideneamine] | 
11 to 100 µM | N=c1n(CCSc2ccccc2)c2ccccc2n1Cc1ccc(Br)cc1 [Compound 7, 1-(4-Bromo-benzyl)-3-(2-phenylsulfanyl-ethyl)-1,3-dihydro-benzoimidazol-2-ylideneamine] | 
11 to 100 µM | N=c1n(CCCOc2ccc(F)cc2)c2ccccc2n1Cc1cccc(Cl)c1 [Compound 10, 1-(3-Chloro-benzyl)-3-[3-(4-fluoro-phenoxy)-propyl]-1,3-dihydro-benzoimidazol-2-ylideneamine] | 
< 10 µM | CCOC(=O)c1cccc(OCCCn2c(=N)n(Cc3ccc(N4CCN(Cc5ccccc5-c5ccccc5)CC4)cc3)c3ccccc32)c1 [Compound 69, 3-(3-{3-[4-(4-Biphenyl-2-ylmethyl-piperazin-1-yl)-benzyl]-2-imino-2,3-dihydro-benzoimidazol-1-yl}-propoxy)-benzoic acid ethyl ester] | 
11 to 100 µM | CCOC(=O)c1cccc(OCCCn2c(=N)n(Cc3ccccc3)c3ccccc32)c1 [Compound 71, 3-[3-(3-Benzyl-2-imino-2,3-dihydro-benzoimidazol-1-yl)-propoxy]-benzoic acid ethyl ester] | 
11 to 100 µM | N=c1n(CCCOc2ccc(F)cc2)c2ccccc2n1Cc1ccc(N2CCN(Cc3ccccc3Cl)CC2)nc1 [Compound 57, 1-{6-[4-(2-Chloro-benzyl)-piperazin-1-yl]-pyridin-3-ylmethyl}-3-[3-(4-fluoro-phenoxy)-propyl]-1,3-dihydro-benzoimidazol-2-ylideneamine] | 
11 to 100 µM | N=c1n(CCCOc2ccc(F)cc2)c2ccccc2n1Cc1ccc(CN2CCN(Cc3ccc(Cl)cc3)CC2)cc1 [Compound 39, 1-{4-[4-(4-Chloro-benzyl)-piperazin-1-ylmethyl]-benzyl}-3-[3-(4-fluoro-phenoxy)-propyl]-1,3-dihydro-benzoimidazol-2-ylideneamine] | 
> 100 µM | N=c1n(Cc2ccccc2Cl)c2ccccc2n1CC(O)COc1ccccc1 (stereo not shown) [Compound 102, 1-[3-(2-Chloro-benzyl)-2-imino-2,3-dihydro-benzoimidazol-1-yl]-3-phenoxy-propan-2-ol] | 
> 100 µM | N=c1n(CCCOc2ccc(Cl)cc2)c2ccccc2n1Cc1ccncc1 [Compound 9, 1-[3-(4-Chloro-phenoxy)-propyl]-3-pyridin-4-ylmethyl-1,3-dihydro-benzoimidazol-2-ylideneamine] | 
11 to 100 µM | N=c1n(CCCOc2ccc(F)cc2)c2ccccc2n1Cc1ccc(CN2CCN(c3cccc(Cl)c3)CC2)cc1 [Compound 41, 1-{4-[4-(3-Chloro-phenyl)-piperazin-1-ylmethyl]-benzyl}-3-[3-(4-fluoro-phenoxy)-propyl]-1,3-dihydro-benzoimidazol-2-ylideneamine] | 
> 100 µM | CCCCn1c(=N)n(CC(O)COc2ccccc2OC)c2ccccc21 (stereo not shown) [Compound 93, 1-(3-Butyl-2-imino-2,3-dihydro-benzoimidazol-1-yl)-3-(2-methoxy-phenoxy)-propan-2-ol] | 
< 10 µM | N=c1n(CCCOc2ccc(F)cc2)c2ccccc2n1Cc1cccc(N2CCN(Cc3ccccc3-c3ccccc3)CC2)c1 [Compound 26, 1-[3-(4-Biphenyl-2-ylmethyl-piperazin-1-yl)-benzyl]-3-[3-(4-fluoro-phenoxy)-propyl]-1,3-dihydro-benzoimidazol-2-ylideneamine] | 
11 to 100 µM | N=c1n(CCCOc2ccc(F)cc2)c2ccccc2n1Cc1ccc(CNCC(=O)Nc2ccc(Cl)cc2)cc1 [Compound 45, N-(4-Chloro-phenyl)-2-(4-{3-[3-(4-fluoro-phenoxy)-propyl]-2-imino-2,3-dihydro-benzoimidazol-1-ylmethyl}-benzylamino)-acetamide] | 
11 to 100 µM | N=c1n(CCCOc2ccc(F)cc2)c2ccccc2n1Cc1ccc(-c2ccc(F)cc2)cc1 [Compound 16, 1-(4′-Fluoro-biphenyl-4-ylmethyl)-3-[3-(4-fluoro-phenoxy)-propyl]-1,3-dihydro-benzoimidazol-2-ylideneamine] | 
< 10 µM | N=c1n(CCSc2ccccc2)c2ccccc2n1Cc1ccc(N2CCN(Cc3ccccc3-c3ccc(Cl)cc3)CC2)cc1 [Compound 33, 1-{4-[4-(4′-Chloro-biphenyl-2-ylmethyl)-piperazin-1-yl]-benzyl}-3-(2-phenylsulfanyl-ethyl)-1,3-dihydro-benzoimidazol-2-ylideneamine] | 
11 to 100 µM | Cc1ccc(Cn2c(=N)n(CC(O)COc3ccccc3)c3ccccc32)cc1 (stereo not shown) [Compound 100, 1-[2-Imino-3-(4-methyl-benzyl)-2,3-dihydro-benzoimidazol-1-yl]-3-phenoxy-propan-2-ol] | 
< 10 µM | N=c1n(Cc2ccc(Br)cc2)c2ccccc2n1CC(O)COc1ccc(F)cc1 (stereo not shown) [Compound 77, 1-[3-(4-Bromo-benzyl)-2-imino-2,3-dihydro-benzoimidazol-1-yl]-3-(4-fluoro-phenoxy)-propan-2-ol] | 
< 10 µM | CC1(C)CCC(c2ccc(Cl)cc2)=C(CN2CCN(c3cccc(Cn4c(=N)n(CCCOc5ccc(F)cc5)c5ccccc54)c3)CC2)C1 [Compound 31, 1-(3-{4-[2-(4-Chloro-phenyl)-5,5-dimethyl-cyclohex-1-enylmethyl]-piperazin-1-yl}-benzyl)-3-[3-(4-fluoro-phenoxy)-propyl]-1,3-dihydro-benzoimidazol-2-ylideneamine] | 
11 to 100 µM | N=c1n(CCCOc2ccc(F)cc2)c2ccccc2n1Cc1ccc(N2CCN(Cc3ccc(Cl)cc3)CC2)nc1 [Compound 55, 1-{6-[4-(4-Chloro-benzyl)-piperazin-1-yl]-pyridin-3-ylmethyl}-3-[3-(4-fluoro-phenoxy)-propyl]-1,3-dihydro-benzoimidazol-2-ylideneamine] | 
 | N=c1n(CCCOc2ccc(F)cc2)c2ccccc2n1Cc1ccc(Cl)nc1 [Compound 52, 1-(6-Chloro-pyridin-3-ylmethyl)-3-[3-(4-fluoro-phenoxy)-propyl]-1,3-dihydro-benzoimidazol-2-ylideneamine] | 4.00 to 4.96
11 to 100 µM | N=c1n(CCCOc2ccc([N+](=O)[O-])cc2)c2ccccc2n1Cc1ccc(Br)cc1 [Compound 14, 1-(4-Bromo-benzyl)-3-[3-(4-nitro-phenoxy)-propyl]-1,3-dihydro-benzoimidazol-2-ylideneamine] | 
11 to 100 µM | N=c1n(Cc2ccccc2)c2ccccc2n1CC(O)COc1ccc(Cl)cc1Cl (stereo not shown) [Compound 106, 1-(3-Benzyl-2-imino-2,3-dihydro-benzoimidazol-1-yl)-3-(2,4-dichloro-phenoxy)-propan-2-ol] | 
